Measured values: patent US10221190B2, “Biguanide compounds and use thereof” (IMMUNOMET THERAPEUTICS INC., priority 2013, dated 2019)

Legend:
SK-MEL-28 cells = test: Inhibitory activity against cancer cells (MTT cell viability), SK-MEL-28; assay type: cell-based; conditions: Homo sapiens, SK-MEL-28, 48 hr incubation
Description: (§1) The inhibitory activities of biguanide derivatives against cancer cells were evaluated in the cell line SK-MEL-28 derived from human Melanoma cell, Miapaka-2 cell line derived from human pancreatic cancer cell and HCT116 cell line derived from human colorectal cancer cell by measuring the concentration that inhibits 50% of the growth of the cell lines (the half maximal inhibitory concentration, IC50).
(§2) Firstly, SK-MEL-28 cells were grown to be density of 5,000 cells/well in RPMI-1640 media supplemented with 10% (v/v) bovine calf serum, on 96-well plates for 16 hr. To measure the IC50 of each compound, the cells were incubated for 48 hr with the 100 mM PBS stock compounds at an amount of 10 mM, 1 mM, 200 uM, 40 uM, 8 uM, 1.6 uM, 0.32 uM or 0.064 uM; 50 mM PBS and EtOH stock compounds at an amount of 1 mM, 200 uM, 40 uM, 8 uM, 1.6 uM, 0.32 uM and 0.064 uM; and 50 mM DMSO stock compounds at an amount of 100 uM, 25 uM, 6.25 uM, 1.56 uM, 0.39 uM, 0.10 uM and 0.02 uM, respectively. To test the viable cells after incubation with each compound, the cell cultures were incubated additionally for 2 hr in the presence of MTT. The produced formazan crystals were dissolved with dimethyl sulfoxide and then measured by detecting the absorbance at 560 nm.
(§3) After the 48 hr incubation, the viable cells were counted on the well plates treated with the compounds of the Examples relative to the count of the viable cells on the non-treated plates, and then was represented as the cell viability (%). By using the cell viability (%) result, the cell viability curve was plotted, and IC50 was calculated from the curve to evaluate the inhibitory activity against cancer cells.

Miapaca-2 cell = test: Inhibitory activity against cancer cells (MTT cell viability), Miapaca-2; assay type: cell-based; conditions: Homo sapiens, MIA PaCa-2, Miapaca-2, 48 hr incubation
Description: as §1, §2, §3
(§4) The inhibitory activities of biguanide derivatives against cancer cells of Miapaca-2 cell and HCT116 cell were evaluated according to the substantially same method as described in SK-MEL-28 cell, except that DMEM media supplemented with 10% (v/v) bovine calf serum was used instead of RPMI-1640 media supplemented with 10% (v/v) bovine calf serum for SK-MEL-28 cell.

HCT116 cell = test: Inhibitory activity against cancer cells (MTT cell viability), HCT116; assay type: cell-based, human; conditions: Homo sapiens, HCT 116, 48 hr incubation
Description: as §1, §2, §3, §4

Row | IC50 (SK-MEL-28 cells) [µM] | IC50 (Miapaca-2 cell) [µM] | IC50 (HCT116 cell) [µM] | Compound
1 | 176 | 209 | > 100 | N=C(NC(=N)N1CCCC1)Nc1ccc(SCC(=O)N2CCCCC2)cc1 [Example 28, N—(N-(4-(2-oxo-2-(piperidin-1-yl)ethylthio)phenyl)carbamimidoyl)pyrrolidine-1-carboximidamide]
2 | 107 | 36.2 | > 100 | N=C(NCc1ccc2c(c1)OCO2)NC(=N)N1CCCC1 [Example 1, N1-pyrrolidine-N5-(benzo[1,3]dioxol-5-ylmethyl) biguanide]
3 |  |  | 11.7 | CN1CCN(C(=N)NC(=N)Nc2ccc(Cl)c(C(F)(F)F)c2)CC1 [Example 38, N1-4-methyl piperazine-N5-(4-chloro-3-trifluoromethyl)phenyl biguanide]
4 |  |  | > 100 | N=C(N)NC(=N)Nc1ccc(F)c(Cl)c1 [Example 58, N5-(3-chloro-4-fluoro)phenyl biguanide]
5 |  |  | > 100 | N=C(NC(=N)N1CC[C@@H](O)C1)Nc1ccc(OC(F)(F)F)cc1 [Example 19, N1-(R)-3-hydroxy pyrrolidine-N5-(4-trifluoromethoxy)phenyl biguanide]
6 |  |  | 6.97 | N=C(NC(=N)N1CCCC1)Nc1cccc(-c2ccccc2)c1 [Example 8, N1-pyrrolidine-N5-(N-biphenyl-3-yl) biguanide]
7 |  |  | > 100 | CC1CC(C)CN(C(=N)NC(=N)Nc2ccc(CCNC(=O)CCCCC3CC4NC(=O)NC4S3)cc2)C1 (stereo not drawn) [Example 79, N-(4-(3-((3,5-dimethylpiperidin-1-yl)(imino)methyl)guanidino)phenethyl)-5-(2-oxohexahydro-1H-thieno[2,3-d]imidazol-5-yl)pentanamide]
8 |  |  | > 100 | N=C(NC(=N)N1CCCC1)Nc1ccc(CCNC(=O)CCCCC2CC3NC(=O)NC3S2)cc1 (stereo not drawn) [Example 77, N-(4-(3-(imino(pyrrolidin-1-yl)methyl)guanidino)phenethyl)-5-(2-oxohexahydro-1H-thieno[2,3-d]imidazol-5-yl)pentaneamide]
9 |  |  | > 100 | COc1ccc2[nH]c(NC(=N)N3CCCC3)nc2c1 [Example 95, N-(5-methoxy-1H-benzo[d]imidazol-2-yl)pyrrolidine-1-carboximidamide]
10 |  |  | 2.57 | N=C(NC(=N)N1CCc2ccccc2C1)Nc1ccc(OC(F)(F)F)cc1 [Example 87, N—(N-(4-(trifluoromethoxy)phenyl)carbamimidoyl)-3,4-dihydroisoquinolin-2(1H)-carboximidamide]
11 |  |  | > 100 | CN1CCN(C(=N)NC(=N)NCc2cccc(Br)c2)CC1 [Example 34, N1-4-methyl piperazine-N5-(3-bromo)benzyl biguanide]
12 |  |  | > 100 | CC(C)(NC(=N)NC(=N)N1CCCC1)c1ccccc1 [Example 13, N1-pyrrolidine-N5-(2-phenylpropane-2-yl) biguanide]
13 |  |  | > 100 | CN(C)c1ccc(NC(=N)NC(=N)N2CCCC2)cc1 [Example 5, N1-pyrrolidine-N5-(4-dimethylamino)phenyl biguanide]
14 |  |  | 50.7 | N=C(NC(=N)Nc1cnccn1)Nc1ccc(C(F)(F)F)cc1 [Example 67, N1-2-pyrazine-N5-(4-trifluoromethyl)phenyl biguanide]
15 |  |  | 6.9 | N=C(NCc1ccco1)NC(=N)Nc1ccc(OC(F)(F)F)cc1 [Example 71, N1-furan-2-ylmethyl-N5-(4-trifluoromethoxy)phenyl biguanide]
16 | > 100 | > 100 | > 100 | N=C(NC(=N)N1CCCC1)Nc1ccc(/C=C/C(=O)N2CCCCC2)cc1 [Example 24, (E)-N—(N-(4-(3-oxo-3-(piperidin-1-yl)prop-1-enyl)phenyl)carbamimidoyl)pyrrolidine-1-carboximidamide]
17 | 29.5 | 26.6 | > 100 | N=C(NC(=N)N1CCCC1)Nc1ccc2c(c1)CCCC2 [Example 14, N1-pyrrolidine-N5-(5,6,7,8-tetrahydronaphthalene-2-yl) biguanide]
18 |  |  | 7.1 | CN1CCN(C(=N)NC(=N)Nc2ccc(OC(F)(F)F)c(Cl)c2)CC1 [Example 36, N1-4-methyl piperazine-N5-(3-chloro-4-trifluoromethoxy)phenyl biguanide]
19 |  |  | > 100 | N=C(NC(=N)N1CCC(O)CC1)Nc1ccc(Oc2ccccc2)cc1 [Example 21, N1-4-hydroxy piperidine-N5-(4-phenoxy)phenyl biguanide]
20 |  |  | 27.4 | C[C@@H]1CCC[C@H](C)N1C(=N)NC(=N)Nc1ccc(CNC(=O)c2ccccc2-c2c3ccc(=O)cc-3oc3cc(O)ccc23)cc1 [Example 84, N-(4-(3-(((2R,6S)-2,6-dimethylpiperidin-1-yl)(imino)methyl)guanidino)benzyl)-2-(6-hydroxy-3-oxo-3H-xanthen-9-yl)benzamide]

Row | IC50 (SK-MEL-28 cells) [µM] | IC50 (Miapaca-2 cell) [µM] | IC50 (HCT116 cell) [µM] | Compound
21 |  |  | 29.2 | N=C(NCc1ccc(C(F)(F)F)cc1)NC(=N)Nc1cccnc1 [Example 64, N1-3-pyridine-N5-(4-trifluoromethyl)benzyl biguanide]
22 |  |  | 42.2 | CN1CCN(C(=N)NC(=N)Nc2ccc(C(F)(F)F)c(F)c2)CC1 [Example 44, N1-4-methyl piperazine-N5-(3-fluoro-4-trifluoromethyl)phenyl biguanide]
23 |  |  | > 100 | CN1CCN(C(=N)NC(=N)NCc2ccc(F)c(OC(F)(F)F)c2)CC1 [Example 41, N1-4-methyl piperazine-N5-(4-fluoro-3-trifluoromethoxy)benzyl biguanide]
24 |  |  | > 100 | N=C(NC(=N)N1CCCC1)Nc1ccc(NC(=O)CCCCC2CC3NC(=O)NC3S2)cc1 (stereo not drawn) [Example 82, N-(4-(3-(imino(pyrrolidin-1-yl)methyl)guanidino)phenyl)-5-(2-oxohexahydro-1H-thieno[2,3-d]imidazol-5-yl)pentanamide]
25 |  |  | 11 | N=C(NC(=N)N1CCc2ccccc21)Nc1cccc(Oc2ccccc2)c1 [Example 91, N—(N-(3-phenoxyphenyl)carbamimidoyl)indoline-1-carboximidamide]
26 |  |  | > 100 | N=C(N)NC(=N)Nc1cccc(Cl)c1Cl [Example 59, N5-(2,3-dichloro)phenyl biguanide]
27 |  |  | > 100 | CC1CCCN(C(=N)NC(=N)Nc2ccc(CCN)cc2)C1 (stereo not drawn) [Example 50]
28 |  |  | 53.2 | CC1CCCN(C(=N)NC(=N)Nc2ccc(CNC(=O)c3ccccc3-c3c4ccc(=O)cc-4oc4cc(O)ccc34)cc2)C1 (stereo not drawn) [Example 86, 2-(6-hydroxy-3-oxo-3H-xanthene-9-yl)-N-(4-(3-(imino(3-methylpiperidine-1-yl)methyl)guanidino)benzyl)benzamide]
29 | 184 | 113 | > 100 | N=C(NC(=N)N1CC[C@H](O)C1)Nc1ccc(OC(F)(F)F)cc1 [Example 17, N1-(S)-3-hydroxy pyrrolidine-N5-(4-trifluoromethoxy)phenyl biguanide]
30 |  |  | > 100 | CCNC(=O)c1ccc(CNC(=N)NC(=N)N2CCCC2)cc1 [Example 27, N-ethyl-4-((3-(imino(pyrrolidin-1-yl)methyl)guanidino)methyl)benzamide]
31 |  |  | > 100 | CCNC(=O)c1cccc(CNC(=N)NC(=N)N2CCCC2)c1 [Example 30, N-ethyl-3-((3-(imino(pyrrolidin-1-yl)methyl)guanidino)methyl)benzamide]
32 |  |  | 53.1 | N=C(NC(=N)NC1CCCC1)Nc1ccc(OC(F)(F)F)cc1 [Example 68, N1-cyclopentyl-N5-(4-trifluoromethoxy)phenyl biguanide]
33 |  |  | > 100 | C[C@@H]1CCC[C@H](C)N1C(=N)NC(=N)Nc1ccc(CCN)cc1 [Example 46]
34 |  |  | 13.5 | N=C(NCc1ccco1)NC(=N)Nc1ccc(Cl)cc1 [Example 70, N1-furan-2-ylmethyl-N5-(4-chloro)phenyl biguanide]
35 |  |  | > 100 | COc1ccc(NC(=N)NC(=N)N2CCCC2)cc1Cl [Example 3, N1-pyrrolidine-N5-(3-chloro-4-methoxy)phenyl biguanide]
36 |  |  | > 100 | CC1CCCCN1C(=N)NC(=N)Nc1ccc(CCN)cc1 (stereo not drawn) [Example 48]
37 |  |  | > 100 | CN1CCN(C(=N)NC(=N)NCc2ccc(OC(F)(F)F)c(F)c2)CC1 [Example 43, N1-4-methyl piperazine-N5-(3-fluoro-4-trifluoromethoxy)benzyl biguanide]
38 |  |  | 7.43 | N=C(NC(=N)N1CCCC1)Nc1ccc(-c2ccccc2)cc1 [Example 9, N1-pyrrolidine-N5-(N-biphenyl-4-yl) biguanide]
39 |  |  | 81.9 | N=C(NCCc1ccc(F)cc1)NC(=N)N1CCCC1 [Example 12, N1-pyrrolidine-N5-(4-fluoro)phenethyl biguanide]
40 |  |  | 7.65 | N=C(NC(=N)N1CCC(F)(F)CC1)Nc1ccc(OC(F)(F)F)cc1 [Example 52, N1-4,4-difluoro piperidine-N5-(4-trifluoromethoxy)phenyl biguanide]

Row | Compound | IC50 (SK-MEL-28 cells) [µM] | IC50 (Miapaca-2 cell) [µM] | IC50 (HCT116 cell) [µM]
41 | N=C(NC(=N)N1CCCC1)Nc1ccc(CCN)cc1 [Example 47] |  |  | > 100
